Reference: patent US10604514B2, “6-(5-membered heteroaryl)isoquinolin-3-yl carboxamides and preparation and use thereof” (Samumed, LLC, priority 2017, dated 2020)
Like-named read-outs stand apart in the source and are kept apart here.

Legend:
[1] = system: Wnt activity (Sp5-Luc reporter in SW480 colon carcinoma cells); experiment: Wnt activity screening assay (Sp5-Luc reporter gene assay); assay type: cell-based, human
How it was run: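 Compounds at 10 points (1:3 steps, top 10 μM, 0.1% DMSO final) were incubated 36 to 48 h at 37° C with stable Sp5-Luc SW480 reporter cells in 1% FBS medium. Luciferase luminescence was then read and expressed relative to DMSO-only cells. Four-parameter variable-slope fitting yielded EC50 values.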

GSK3β kinase = GSK3β kinase (Homo sapiens (Human), UniProt P49841); experiment: GSK3β kinase assay (Ser/Thr 09 peptide Z-lyte, FRET); assay type: biochemical; conditions: method text calls the value IC50;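 also: Coumarin/fluorescein emission ratio converted to percent phosphorylation against unphosphorylated (0%) and phosphorylated (100%) controls, 1 h compound incubation at room temperature, 11-point threefold dilutions from 10 µM, run in duplicate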
Chain of GSK3β kinase (P49841 whole entry): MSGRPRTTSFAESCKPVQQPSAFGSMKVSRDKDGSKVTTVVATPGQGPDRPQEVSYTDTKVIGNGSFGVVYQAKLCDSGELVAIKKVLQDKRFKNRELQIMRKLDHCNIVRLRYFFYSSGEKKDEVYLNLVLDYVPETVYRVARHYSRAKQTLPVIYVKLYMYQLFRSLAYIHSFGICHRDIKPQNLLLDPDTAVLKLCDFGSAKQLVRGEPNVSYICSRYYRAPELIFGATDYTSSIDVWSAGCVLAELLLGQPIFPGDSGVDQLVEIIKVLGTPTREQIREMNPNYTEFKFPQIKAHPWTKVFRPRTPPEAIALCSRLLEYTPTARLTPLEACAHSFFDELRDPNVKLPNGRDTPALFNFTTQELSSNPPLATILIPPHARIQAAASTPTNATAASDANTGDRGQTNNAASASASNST
Procedure: Representative compounds were screened using the assay procedure for GSK30 kinase activity as described below.
Each compound is dissolved in DMSO as a 10 mM stock and used to prepare compound source plates. Serial dilution (1:3, 11-point dose-response curves from 10 M to 0.0003 μM) and compound transfer was performed using the ECHO 550 (Labcyte, Sunnyvale, Calif.) into 1536-well black-walled round bottom plates (Corning).
This is a non-radioactive assay using fluorescence resonance energy transfer (FRET) between coumarin and fluorescein to detect kinase activity which is represented as ratio of coumarin emission/fluorescein emission.
The mixture is allowed to incubate with the representative compounds for one hour at room temperature. All reactions were performed in duplicate. Unphosphorylated (“0% Control”) and phosphorylated (“100% control”) forms of Ser/Thr 18 serve as control reactions.
After incubation, diluted Development Buffer is added to the reaction and allowed to further incubate for one hour at room temperature.
The percent phosphorylation is then calculated using the following formula: [1−((Em ratio×F100%)−C100%)/((C0%−C100%)+(Em ratio×(F100%−F0%)))].
Dose-response curves are generated and inhibitory concentration (IC50) values are calculated using non-linear regression curve fit in the Dotmatics' Studies Software (Bishops Stortford, UK).

[2] = system: Tau phosphorylation at Ser396 (pSer396), SH-SY5Y cells; experiment: Tau phosphorylation at Ser396 (pSer396) in SH-SY5Y cells, ELISA/western blot; assay type: cell-based, human; conditions: Homo sapiens;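 also: cell lysates probed for reduced Tau pSer396 via ELISA (colorimetric) or western blot (chemiluminescence), both with one shared pSer396 antibody, EC50 for lowering phosphorylation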
[3] = system: SW480 colon carcinoma cells; experiment: Cell viability assay (CellTiter-Glo) in SW480 cells; assay type: cell-based, human;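 also: SW480 cells stably carrying an Sp5-luciferase TCF/LEF reporter, luminescent ATP signal as viability measure, DMSO-treated cells as control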
[4] = system: LL29 cells (primary human fibroblasts derived from IPF patients), α-smooth muscle actin; experiment: Inhibition of fibrotic process: αSMA in TGF-β1-treated primary human fibroblasts from IPF patients (LL29 cells); assay type: cell-based; conditions: Homo sapiens, Fibroblast; for EC50: 96 h, % αSMA-positive LL29 cells, TGF-β1 20 ng/mL, 4 days; for inhibition at 10 µM: read-out: percent inhibition at 10 μM
How it was run: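 Read-out is the percentage of αSMA-positive cells by high-content imaging, excluding SYTOX green-positive dead/apoptotic cells, normalized to TGF-β1-only wells on the same plate. LL29 cells were exposed for 4 days at 37 °C to 20 ng/mL TGF-β1 plus 11-point, 2-fold compound dilutions in 0.1% DMSO.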

IL-6 = IL-6 inhibition in LPS-stimulated human peripheral blood mononuclear cells (HTRF); assay type: cell-based; conditions: Homo sapiens, PBMC; for EC50: IL-6, LPS-stimulated huPBMCs, HTRF; for inhibition at 10 µM: read-out: percent value in parentheses below EC50 >10
How it was run: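 EC50 from a 4-parameter fit of DMSO-normalized HTRF (665/620 nm) IL-6 signal, duplicates. Compound was added to fresh human PBMCs in 1% FBS RPMI for 2 h (top 10 μM, 3-fold, 0.25% DMSO) before 22 h stimulation with LPS at 50 ng/mL, 37 °C.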

DYRK1A kinase = DYRK1A kinase (Homo sapiens (Human), UniProt Q13627); experiment: DYRK1A kinase assay (Ser/Thr 18 peptide Z-lyte, FRET)
[5] = Homo sapiens; Sp5-Luc reporter, SW480 cells, 36 to 48 hours
[6] = SH-SY5Y cells, overnight (16-18 h), read-out: pSer396 Tau EC50
[7] = Homo sapiens, 96 h; cell viability, SW480 cells, four days, CellTiter-Glo
[8] = Homo sapiens, SW480; read-out: percent inhibition at 10 μM
[9] = DYRK1A kinase, method text calls the value IC50
[10] = Homo sapiens, SW480, read-out: percent inhibition at 10 μM

Row | Structure (SMILES) | EC50 [1, 5] | EC50 (GSK3β kinase) | EC50 [2, 6] | EC50 [3, 7] | EC50 (IL-6) | EC50 (DYRK1A kinase) | EC50 (DYRK1A kinase; [9]) | EC50 [4] | inhibition at 10 µM [1, 8] | inhibition at 10 µM [3, 8] | inhibition at 10 µM [4] | inhibition at 10 µM (IL-6) | inhibition at 10 µM [1, 10] | EC50 ([2]; SH-SY5Y, read-out: pSer396 Tau EC50 (μM)) | inhibition at 10 µM [3, 10]
1 | [2H]C([2H])(C(=O)Nc1cc2cc(-c3cncn3C)ccc2cn1)c1ccc(F)cc1 [Compound 95, 2-(4-Fluorophenyl)-N-(6-(1-methyl-1H-imidazol-5-yl)isoquinolin-3-yl) acetamide-2,2-d2] | 1070 nM | 38 nM | 0.076 µM | 766 nM | 339 nM | 4 nM |  | 276 nM |  |  |  |  |  |  | 
2 | Cn1cc(-c2cc(F)c3cnc(NC(=O)[C@H]4CC[C@@H](N(C)C)CC4)cc3c2)cn1 [Compound 96, cis-4-(Dimethylamino)-N-(8-fluoro-6-(1-methyl-1H-pyrazol-4-yl)isoquinolin-3-yl)cyclohexane-1-carboxamide] | > 10000 nM | 5420 nM | > 10 µM | > 10000 nM | > 10000 nM |  | 846 nM | > 10000 nM | 0% | 2.3% | 36% | 3.6% |  |  | 
3 | Cn1cc(-c2cc(F)c3cnc(NC(=O)[C@H]4CC[C@@H](N5CCOCC5)CC4)cc3c2)cn1 [Compound 97, cis-N-(8-Fluoro-6-(1-methyl-1H-pyrazol-4-yl)isoquinolin-3-yl)-4-morpholinocyclohexane-1-carboxamide] | 1470 nM | 20 nM | 0.184 µM | 806 nM | 365 nM |  | 14 nM | 200 nM |  |  |  |  |  |  | 
4 | Cn1cc(-c2ccc3cnc(NC(=O)[C@H]4CC[C@H](N5CCCC5)CC4)cc3c2)nn1 [Compound 99, trans-N-(6-(1-Methyl-1H-1,2,3-triazol-4-yl)isoquinolin-3-yl)-4-(pyrrolidin-1-yl)cyclohexane-1-carboxamide] | 589 nM | 8 nM | 0.208 µM | 1080 nM | 1360 nM |  | 4 nM | 72 nM |  |  |  |  |  |  | 
5 | Cn1cc(-c2ccc3cnc(NC(=O)[C@H]4CC[C@H](N5CCOCC5)CC4)cc3c2)nn1 [Compound 100, trans-N-(6-(1-Methyl-1H-1,2,3-triazol-4-yl)isoquinolin-3-yl)-4-morpholinocyclohexane-1-carboxamide] | 720 nM | 11 nM | 0.113 µM | 1530 nM | 2020 nM |  | 3 nM | 64 nM |  |  |  |  |  |  | 
6 | Cc1ncc(-c2cc(F)c3cnc(NC(=O)[C@H]4CC[C@H](C(=O)N5CCN(C)CC5)CC4)cc3c2)o1 [Compound 101, trans-N-(8-fluoro-6-(2-methyloxazol-5-yl)isoquinolin-3-yl)-4-(4-methylpiperazine-1-carbonyl)cyclohexane-1-carboxamide] | > 10000 nM | 1030 nM | 5.4 µM | > 10000 nM | 3590 nM |  | 22 nM | 3070 nM | 6.3% | 18.8% |  |  |  |  | 
7 | Cn1cc(-c2cc(F)c3cnc(NC(=O)[C@H]4CC[C@H](NCC(F)F)CC4)cc3c2)cn1 [Compound 103, trans-4-((2,2-Difluoroethyl)amino)-N-(8-fluoro-6-(1-methyl-1H-pyrazol-4-yl)isoquinolin-3-yl)cyclohexane-1-carboxamide] | 2970 nM | 30 nM | 1.3 µM | 6080 nM | 1080 nM |  | 5 nM | 392 nM |  |  |  |  |  |  | 
8 | Cc1ncc(-c2ccc3cnc(NC(=O)[C@H]4CC[C@H](NCC(F)F)CC4)cc3c2)o1 [Compound 104, trans-4-((2,2-Difluoroethyl)amino)-N-(6-(2-methyloxazol-5-yl)isoquinolin-3-yl)cyclohexane-1-carboxamide] | 3600 nM | 149 nM | 0.712 µM | 4590 nM | 1140 nM |  | 8 nM | 220 nM |  |  |  |  |  |  | 
9 | Cc1nnc(-c2ccc3cnc(NC(=O)N4CC5CCC(C4)N5C)cc3c2)s1 [Compound 110, 8-Methyl-N-(6-(5-methyl-1,3,4-thiadiazol-2-yl)isoquinolin-3-yl)-3,8-diazabicyclo[3.2.1]octane-3-carboxamide] | > 10000 nM | 314 nM |  | > 10000 nM | > 10000 nM |  | 17 nM | 1970 nM |  |  |  | 7% | 24.5% | 2.1 µM | 1.5%
10 | Cc1ncc(-c2ccc3cnc(NC(=O)[C@H]4CC[C@H](NC(CF)CF)CC4)cc3c2)o1 [Compound 124, trans-4-((1,3-difluoropropan-2-yl)amino)-N-(6-(2-methyloxazol-5-yl)isoquinolin-3-yl)cyclohexane-1-carboxamide] | 3480 nM | 217 nM | 0.612 µM | 1020 nM | 1880 nM |  | 35 nM | 451 nM |  |  |  |  |  |  | 

Second part, led by results:

Row | EC50 [1, 5] | EC50 (GSK3β kinase) | EC50 [2, 6] | EC50 [3, 7] | EC50 (IL-6) | EC50 (DYRK1A kinase) | EC50 (DYRK1A kinase; [9]) | Structure (SMILES) | EC50 [4] | inhibition at 10 µM [1, 8] | inhibition at 10 µM [3, 8] | inhibition at 10 µM [4] | inhibition at 10 µM (IL-6) | inhibition at 10 µM [1, 10] | EC50 ([2]; SH-SY5Y, read-out: pSer396 Tau EC50 (μM)) | inhibition at 10 µM [3, 10]
11 | 3250 nM | 434 nM | 2.6 µM | 3030 nM | 2920 nM |  | 5 nM | CN1CCN(C(=O)[C@H]2CC[C@H](C(=O)Nc3cc4cc(-c5cnn(C)c5)cc(F)c4cn3)CC2)CC1 [Compound 102, trans-N-(8-Fluoro-6-(1-methyl-1H-pyrazol-4-yl)isoquinolin-3-yl)-4-(4-methylpiperazine-1-carbonyl)cyclohexane-1-carboxamide] | 2400 nM |  |  |  |  |  |  | 
12 | > 10000 nM | 550 nM | 2.2 µM | > 10000 nM | 1570 nM |  | 34 nM | COCCN[C@H]1CC[C@H](C(=O)Nc2cc3cc(-c4cnn(C)c4)cc(F)c3cn2)CC1 [Compound 105, trans-N-(8-Fluoro-6-(1-methyl-1H-pyrazol-4-yl)isoquinolin-3-yl)-4-((2-methoxyethyl)amino)cyclohexane-1-carboxamide] | 812 nM | 15.8% | 16.9% |  |  |  |  | 
13 | 7810 nM | 175 nM | 3.1 µM | 4130 nM | > 10000 nM |  | 10 nM | Cc1nnc(-c2ccc3cnc(NC(=O)N4CCN(C)[C@H](C)C4)cc3c2)s1 [Compound 109, (R)-3,4-Dimethyl-N-(6-(5-methyl-1,3,4-thiadiazol-2-yl)isoquinolin-3-yl) piperazine-1-carboxamide] | > 10000 nM |  |  | 19.5% | 6.9% |  |  | 
14 | 8130 nM | 82 nM | 0.953 µM | > 10000 nM | > 10000 nM |  | 35 nM | Cc1nnc(-c2ccc3cnc(NC(=O)N4CCC(NC(CF)CF)CC4)cc3c2)s1 [Compound 121, 4-((1,3-Difluoropropan-2-yl)amino)-N-(6-(5-methyl-1,3,4-thiadiazol-2-yl)isoquinolin-3-yl)piperidine-1-carboxamide] | > 10000 nM |  | 36.5% | 10.4% | 5.4% |  |  | 
15 | 1240 nM | 5 nM | 0.114 µM | 1660 nM | 9270 nM |  | 4 nM | Cc1nnc(-c2ccc3cnc(NC(=O)N4CCn5ccnc5C4)cc3c2)s1 [Compound 125, N-(6-(5-Methyl-1,3,4-thiadiazol-2-yl)isoquinolin-3-yl)-5,6-dihydroimidazo [1,2-a]pyrazine-7(8H)-carboxamide] | 442 nM |  |  |  |  |  |  | 
16 | 1180 nM | 24 nM | 0.197 µM | 488 nM | 363 nM |  | 5 nM | Cc1ncc(-c2ccc3cnc(NC(=O)N4CCn5ccnc5C4)cc3c2)o1 [Compound 126, N-(6-(2-Methyloxazol-5-yl)isoquinolin-3-yl)-5,6-dihydroimidazo[1,2-a]pyrazine-7(8H)-carboxamide] | 286 nM |  |  |  |  |  |  | 
17 | 3180 nM | 25 nM | 0.491 µM | 4370 nM | > 10000 nM |  | 16 nM | Cc1nnc(-c2ccc3cnc(NC(=O)N4CCC(N5CCOCC5)CC4)cc3c2)s1 [Compound 128, N-(6-(5-Methyl-1,3,4-thiadiazol-2-yl)isoquinolin-3-yl)-4-morpholinopiperidine-1-carboxamide] | 6630 nM |  |  |  | 8% |  |  | 
